# Test results as given in PMC3334291 (Biochemistry, 2012).
# Columns and labels:
# [1] = molecular target: MelBSt (melibiose permease of Salmonella typhimurium) (Salmonella enterica, UniProt P30878, L5M); settings: read-out: WT; 20 mM NaCl, 10 μM D2G, 100 mM KPi pH 7.5; sugar site, competitive
# [2] = molecular target: MelBSt (melibiose permease of Salmonella typhimurium) (Salmonella enterica, UniProt P30878, L5M/G117A); settings: read-out: G117A; 20 mM NaCl, 10 μM D2G, 100 mM KPi pH 7.5; sugar site, competitive
smiles,measurement,setting,value
OC[C@H]1O[C@H](OC[C@H]2OC(O)[C@H](O)[C@@H](O)[C@@H]2O)[C@H](O)[C@@H](O)[C@H]1O (some centres unmarked) [melibiose],IC50,[1],3.8 mM
same,IC50,[2],8.1 mM
